From patent US20230131903A1, “PESTICIDALLY ACTIVE FUSED BICYCLIC HETEROAROMATIC COMPOUNDS” (SYNGENTA CROP PROTECTION AG, priority 2020, published 2023)

Tests used:
Type in all cases: in vivo
[1] = tested on: Plutella xylostella (Diamond Back Moth); test: Example B4: Plutella xylostella (diamond back moth), artificial diet, eggs; details: 192 h, application rate of 200 ppm, 8 days after infestation, in comparison to untreated samples, read-out: control in at least one of the two categories (mortality or growth inhibition)
Procedure: Example B4: Plutella xylostella (Diamond Back Moth)
24-well microtiter plates with artificial diet were treated with aqueous test solutions prepared from 10′000 ppm DMSO stock solutions by pipetting. After drying, Plutella eggs were pipetted through a plastic stencil onto a gel blotting paper and the plate was closed with it. The samples were assessed for mortality and growth inhibition in comparison to untreated samples 8 days after infestation.
(§1) The following compounds gave an effect of at least 80% control in at least one of the two categories (mortality or growth inhibition) at an application rate of 200 ppm

[2] = tested on: Euschistus heros (Neotropical Brown Stink Bug); test: Example B2: Euschistus heros (neotropical brown stink bug), soybean leaves sprayed, N2 nymphs; details: 120 h, application rate of 200 ppm, 5 days after infestation, in comparison to untreated samples, read-out: control in at least one of the two categories (mortality or growth inhibition)
Procedure: Example B2: Euschistus heros (Neotropical Brown Stink Bug)
Soybean leaves on agar in 24-well microtiter plates were sprayed with aqueous test solutions prepared from 10′000 ppm DMSO stock solutions. After drying the leaves were infested with N2 nymphs. The samples were assessed for mortality and growth inhibition in comparison to untreated samples 5 days after infestation.
as §1

[3] = tested on: Chilo suppressalis (Striped Rice Stemborer); test: Example B3: Chilo suppressalis (striped rice stemborer), artificial diet, L2 larvae; details: 144 h, application rate of 200 ppm, 6 days after infestation, in comparison to untreated samples, read-out: control in at least one of the three categories (mortality, anti-feedant effect, or growth inhibition)
Procedure: Example B3: Chilo suppressalis (Striped Rice Stemborer)
24-well microtiter plates with artificial diet were treated with aqueous test solutions prepared from 10′000 ppm DMSO stock solutions by pipetting. After drying, the plates were infested with L2 larvae (6-8 per well). The samples were assessed for mortality, anti-feeding effect, and growth inhibition in comparison to untreated samples 6 days after infestation. Control of Chilo suppressalis by a test sample is given when at least one of the categories mortality, anti-feedant effect, and growth inhibition is higher than the untreated sample.

[4] = tested on: Spodoptera littoralis (Egyptian Cotton Leaf Worm); test: Example B5: Spodoptera littoralis (Egyptian cotton leaf worm), cotton leaf discs sprayed, L1 larvae; details: foliar, 72 h, application rate of 200 ppm, 3 days after infestation, in comparison to untreated samples, read-out: control in at least one of the three categories (mortality, anti-feedant effect, or growth inhibition)
Procedure: Example B5: Spodoptera littoralis (Egyptian Cotton Leaf Worm)
Cotton leaf discs were placed onto agar in 24-well microtiter plates and sprayed with aqueous test solutions prepared from 10′000 ppm DMSO stock solutions. After drying the leaf discs were infested with five L1 larvae. The samples were assessed for mortality, anti-feeding effect, and growth inhibition in comparison to untreated samples 3 days after infestation. Control of Spodoptera littoralis by a test sample is given when at least one of the categories mortality, anti-feedant effect, and growth inhibition is higher than the untreated sample.

[5] = tested on: Diabrotica Balteata (Corn Root Worm); test: Example B1: Diabrotica balteata (corn root worm), maize sprouts sprayed, L2 larvae; details: 96 h, application rate of 200 ppm, 4 days after infestation, in comparison to untreated samples, read-out: control in at least one of the two categories (mortality or growth inhibition)
Procedure: Example B1: Diabrotica Balteata (Corn Root Worm)
Maize sprouts placed onto an agar layer in 24-well microtiter plates were treated with aqueous test solutions prepared from 10′000 ppm DMSO stock solutions by spraying. After drying, the plates were infested with L2 larvae (6 to 10 per well). The samples were assessed for mortality and growth inhibition in comparison to untreated samples 4 days after infestation.
as §1

Row | Structure (SMILES) | percent control (mortality or growth inhibition) at 200 ppm [1] [%] | percent control (mortality or growth inhibition) at 200 ppm [2] [%] | percent control (mortality, anti-feedant effect or growth inhibition) at 200 ppm [3] [%] | percent control (mortality, anti-feedant effect or growth inhibition) at 200 ppm [4] [%] | percent control (mortality or growth inhibition) at 200 ppm [5] [%]
1 | CC(Nc1nc(=O)n(C)c2c(Cl)cc(C(F)(F)F)cc12)c1ncnn1-c1ncccn1 (stereo not shown) [P7, 8-chloro-1-methyl-4-[1-(2-pyrimidin-2-yl-1,2,4-triazol-3-yl)ethylamino]-6-(trifluoromethyl) quinazolin-2-one] | ≥ 80 | ≥ 80 | ≥ 80 |  | 
2 | CC(Nc1nc(=O)n(C)c2c(C(F)(F)F)cc(Br)cc12)c1ncnn1-c1ncccn1 (stereo not shown) [P5, 6-bromo-1-methyl-4-[1-(2-pyrimidin-2-yl-1,2,4-triazol-3-yl)ethylamino]-8-(trifluoromethyl)quinazolin-2-one] | ≥ 80 | ≥ 80 | ≥ 80 | ≥ 80 | ≥ 80
3 | CC(Nc1nc(=O)[nH]c2c(Cl)cc(C(F)(F)F)cc12)c1ncnn1-c1ncccn1 (stereo not shown) [P4, 8-chloro-4-[1-(2-pyrimidin-2-yl-1,2,4-triazol-3-yl)ethylamino]-6-(trifluoromethyl)-1H-quinazolin-2-one] | ≥ 80 | ≥ 80 | ≥ 80 | ≥ 80 | 
4 | CC(Nc1nc(=O)[nH]c2c(Br)cc(C(F)(F)F)cc12)c1ncnn1-c1ncccn1 (stereo not shown) [P2] | ≥ 80 | ≥ 80 | ≥ 80 |  | ≥ 80
5 | CC(c1ncnn1-c1ncccn1)N(CC1CC1)c1nc(=O)[nH]c2c(Cl)cc(C(F)(F)F)cc12 (stereo not shown) [P1, 8-chloro-4-[cyclopropylmethyl-[1-(2-pyrimidin-2-yl-1,2,4-triazol-3-yl)ethyl]amino]-6-(trifluoromethyl)-1H-quinazolin-2-one] | ≥ 80 | ≥ 80 |  |  | ≥ 80
6 | CC(Nc1cc(=O)[nH]c2c(Cl)cc(C(F)(F)F)cc12)c1nccnc1-c1ncccn1 (stereo not shown) [P8, 8-chloro-4-[1-(3-pyrimidin-2-ylpyrazin-2-yl)ethylamino]-6-(trifluoromethyl)-1H-quinolin-2-one] | ≥ 80 |  |  |  | ≥ 80
7 | CC(c1ncnn1-c1ncccn1)N(C)c1nc(=O)n(CC(F)(F)F)c2ccc(C(F)(F)F)cc12 (stereo not shown) [P12, 4-[methyl-[1-(2-pyrimidin-2-yl-1,2,4-triazol-3-yl)ethyl]amino]-1-(2,2,2-trifluoroethyl)-6-(trifluoromethyl) quinazolin-2-one] |  | ≥ 80 |  |  | 
8 | CC(c1ncnn1-c1ncccn1)N(CC1CC1)c1nc(=O)[nH]c2c(Br)cc(C(F)(F)F)cc12 (stereo not shown) [P3, 8-bromo-4-[cyclopropylmethyl-[1-(2-pyrimidin-2-yl-1,2,4-triazol-3-yl)ethyl]amino]-6-(trifluoromethyl)-1H-quinazolin-2-one] | ≥ 80 | ≥ 80 |  |  | ≥ 80
9 | CC(c1ncnn1-c1ncccn1)N(C)c1nc(=O)n(C)c2c(Cl)cc(C(F)(F)F)cc12 (stereo not shown) [P10, 8-chloro-1-methyl-4-[methyl-[1-(2-pyrimidin-2-yl-1,2,4-triazol-3-yl)ethyl]amino]-6-(trifluoromethyl) quinazolin-2-one] |  | ≥ 80 |  |  | 
10 | CC(c1ncnn1-c1ncccn1)N(C)c1nc(=O)n(C)c2c(C(F)(F)F)cc(Br)cc12 (stereo not shown) [P6, 6-bromo-1-methyl-4-[methyl-[1-(2-pyrimidin-2-yl-1,2,4-triazol-3-yl)ethyl]amino]-8-E (trifluoromethyl)quinazolin-2-one] |  | ≥ 80 |  |  | ≥ 80
